Tested on: patients with chronic kidney disease anemia
Test: Phase 2 clinical trial in patients with chronic kidney disease anemia (hemoglobin, adverse events)
Type: in vivo, human
Details: for mean rate of hemoglobin increase: end of dose-fixing period (5 weeks); for mean hemoglobin level: Weeks 6-14 (entire titration period); for cumulative percentage of patients achieving target hemoglobin range 10.0-11.0 g/dL and increase of ≥1.0 g/dL from baseline: entire 13-week treatment period; for TEAE, % of patients / TEAE, NE (total number of adverse events) / TEAE, n (number of patients experiencing adverse events) / Treatment-related TEAE, % of patients / Treatment-related TEAE, NE (total number of adverse events) / Treatment-related TEAE, n (number of patients experiencing adverse events): titration period
Description: A Phase 2, randomized, double-blind, placebo-controlled clinical study of Comp-1 in patients with chronic kidney disease anemia included a total treatment period of 13 weeks, divided into an initial 5-week dose-fixing period and a subsequent 8-week dose adjustment period (also referred to as the titration period). A total of 113 patients with renal anemia were initially randomized into the dose-fixing period. During the dose-fixing period, patients with renal anemia received Comp-1 8 mg, 12 mg, or 16 mg three times weekly (TIW), or a matching placebo. At the Week 6 study visit, a total of 44 eligible patients underwent a second randomization into the dose adjustment period (titration period). […] The starting dose in this phase was the same as the dose during the dose-fixing period and could be adjusted based on weekly hemoglobin values to maintain hemoglobin within the target range of 10.0-11.0 g/dL, inclusive. To maintain blinding, patients in the placebo group underwent pseudo-randomization and continued to receive matching placebo. During the study, patients were visited weekly to measure the primary efficacy indicator, i.e. hemoglobin level, and safety comparisons were made for patients entering the titration period according to dosing frequency (three times weekly (TIW) dosing vs. once weekly (QW) dosing).
The primary efficacy objective of the study was to compare the mean rate of hemoglobin increase (g/dL/week) at the end of the dose-fixing period (i.e., after 5 weeks of dosing) between the three Comp-1 dose groups and the placebo group. […] In the analysis of hemoglobin during the adjustment period (titration period), at Week 14 (i.e., at the end of the titration period or after 13 weeks of dosing), the mean levels of hemoglobin in the pooled Comp-1 TIW group and QW group were 10.74 g/dL and 10.09 g/dL, respectively, both maintained within the study target range of 10.0-11.0 g/dL inclusive, while the mean level of hemoglobin in the placebo group was 9.57 g/dL. During the later part of the adjustment period (titration period), i.e., Weeks 10-14, the mean levels of hemoglobin were >10.0 g/dL in all dose frequency groups including the placebo group: 10.73 g/dL and 10.77 g/dL in the pooled Comp-1 TIW and QW groups, respectively, and 10.26 g/dL in the placebo group. The change in hemoglobin level from baseline was 1.60 g/dL and 1.63 g/dL in the pooled Comp-1 TIW and QW groups, respectively, and 0.48 g/dL in the placebo group. […] In the analysis of hemoglobin throughout the entire adjustment period (titration period), i.e., Weeks 6-14, the mean hemoglobin levels in the pooled Comp-1 TIW and QW groups were 10.84 g/dL and 10.91 g/dL, respectively, compared to 10.23 g/dL in the placebo group. […] Throughout the entire 13-week treatment period, the cumulative percentage of patients achieving the target hemoglobin range of 10.0-11.0 g/dL inclusive and an increase of ≥1.0 g/dL from baseline was similar between the pooled Comp-1 TIW and QW groups: 100% and 90%, respectively, compared to 40% in the placebo group. Table 3 below provides a safety comparison for patients entering the titration period according to dosing frequency.
TEAE: treatment emergent adverse event; Treatment-related TEAE: treatment emergent adverse event considered related to treatment; N: number of patients; NE: total number of adverse events occurring; n: number of patients experiencing adverse events.

O=C(O)CNC(=O)C1=C(O)C2(CCCC2)n2c(ccc2-c2ccccc2)C1=O [Comp-1, (6′-hydroxy-8′-oxo-3′-phenyl-8′H-spiro[cyclopentane-1,5′-indolizine]-7′-carbonyl)glycine]
mean rate of hemoglobin increase (8 mg TIW): 0.2839 g/dL/week | mean rate of hemoglobin increase (12 mg TIW): 0.3893 g/dL/week | mean rate of hemoglobin increase (16 mg TIW): 0.4817 g/dL/week | mean level of hemoglobin (Week 14, pooled QW group): 10.09 g/dL | mean level of hemoglobin (Week 14, pooled TIW group): 10.74 g/dL | mean hemoglobin level (pooled QW group): 10.91 g/dL | mean hemoglobin level (pooled TIW group): 10.84 g/dL | change in hemoglobin from baseline (Weeks 6-14, pooled QW group): 1.78 g/dL | change in hemoglobin from baseline (Weeks 6-14, pooled TIW group): 1.71 g/dL | change in hemoglobin level from baseline (Weeks 10-14, pooled QW group): 1.63 g/dL | mean level of hemoglobin (Weeks 10-14, pooled QW group): 10.77 g/dL | change in hemoglobin level from baseline (Weeks 10-14, pooled TIW group): 1.60 g/dL | mean level of hemoglobin (Weeks 10-14, pooled TIW group): 10.73 g/dL | cumulative percentage of patients achieving target hemoglobin range 10.0-11.0 g/dL and increase of ≥1.0 g/dL from baseline (pooled QW group): 90% | cumulative percentage of patients achieving target hemoglobin range 10.0-11.0 g/dL and increase of ≥1.0 g/dL from baseline (pooled TIW group): 100% | TEAE, % of patients (Pooled QW, N = 20): 70.0% | TEAE, NE (total number of adverse events) (Pooled QW, N = 20): 18 | TEAE, n (number of patients experiencing adverse events) (Pooled QW, N = 20): 14 | Treatment-related TEAE, % of patients (Pooled QW, N = 20): 5.0% | Treatment-related TEAE, NE (total number of adverse events) (Pooled QW, N = 20): 1 | Treatment-related TEAE, n (number of patients experiencing adverse events) (Pooled QW, N = 20): 1 | TEAE, % of patients (Pooled TIW, N = 19): 73.7% | TEAE, NE (total number of adverse events) (Pooled TIW, N = 19): 39 | TEAE, n (number of patients experiencing adverse events) (Pooled TIW, N = 19): 14 | Treatment-related TEAE, % of patients (Pooled TIW, N = 19): 10.5% | Treatment-related TEAE, NE (total number of adverse events) (Pooled TIW, N = 19): 2 | Treatment-related TEAE, n (number of patients experiencing adverse events) (Pooled TIW, N = 19): 2
